Assay results reported in patent publication US8975249B2, “Heterocyclic compounds and uses thereof” (Celgene Avilomics Research, Inc., priority 2010, dated 2015).

Legend:
EGFR (WT) = EGFR (WT) (Homo sapiens (Human), UniProt P00533); assay: Omnia biochemical assay, EGFR-WT active enzyme; conditions: [EGFR-WT]=5 nM, [ATP]=15 uM, 30 min pre-incubation
Procedure: Kinase reactions were started with the addition of 45 μL of the ATP/Tyr-Sox peptide substrate mix and monitored every 71 seconds for 60 minutes at λex360/λem485 in a Synergy^4 plate reader from BioTek (Winooski, Vt.).
The compound numbers correspond to the compound numbers in Table 1.

[1] = test system: H1975 cells (EGFR L858R/T790M); assay: Cell proliferation (CellTiter Glo), H1975 cells; conditions: proliferation GI50 WT EGFR / H1975
[2] = test system: HCC827 cells (EGFR delE746-A750); assay: Cell proliferation (CellTiter Glo), HCC827 cells; conditions: proliferation GI50 WT EGFR / HCC827
Procedure: A431 human epidermoid carcinoma, H1975 human NSCLC and HCC827 human NSCLC adenocarcinoma cells were obtained from the American Type Culture Center (Manassas, Va.). A431 cells were grown in DMEM (Invitrogen, Carlsbad, Calif.) supplemented with 10% FBS (HyClone, South Logan, Utah) and 1% Penicillin-Streptomycin (P/S, Lonza, Walkersville, Md.).
Cells were plated in Growth Media supplemented with 5% FBS and 1% P/S at a density of 3,000 cells per well in 96 well tissue culture plates (Corning). […] Growth inhibition (GI50) values were determined by Graph Pad Prism.

Chain of EGFR (WT) (P00533 25-1210): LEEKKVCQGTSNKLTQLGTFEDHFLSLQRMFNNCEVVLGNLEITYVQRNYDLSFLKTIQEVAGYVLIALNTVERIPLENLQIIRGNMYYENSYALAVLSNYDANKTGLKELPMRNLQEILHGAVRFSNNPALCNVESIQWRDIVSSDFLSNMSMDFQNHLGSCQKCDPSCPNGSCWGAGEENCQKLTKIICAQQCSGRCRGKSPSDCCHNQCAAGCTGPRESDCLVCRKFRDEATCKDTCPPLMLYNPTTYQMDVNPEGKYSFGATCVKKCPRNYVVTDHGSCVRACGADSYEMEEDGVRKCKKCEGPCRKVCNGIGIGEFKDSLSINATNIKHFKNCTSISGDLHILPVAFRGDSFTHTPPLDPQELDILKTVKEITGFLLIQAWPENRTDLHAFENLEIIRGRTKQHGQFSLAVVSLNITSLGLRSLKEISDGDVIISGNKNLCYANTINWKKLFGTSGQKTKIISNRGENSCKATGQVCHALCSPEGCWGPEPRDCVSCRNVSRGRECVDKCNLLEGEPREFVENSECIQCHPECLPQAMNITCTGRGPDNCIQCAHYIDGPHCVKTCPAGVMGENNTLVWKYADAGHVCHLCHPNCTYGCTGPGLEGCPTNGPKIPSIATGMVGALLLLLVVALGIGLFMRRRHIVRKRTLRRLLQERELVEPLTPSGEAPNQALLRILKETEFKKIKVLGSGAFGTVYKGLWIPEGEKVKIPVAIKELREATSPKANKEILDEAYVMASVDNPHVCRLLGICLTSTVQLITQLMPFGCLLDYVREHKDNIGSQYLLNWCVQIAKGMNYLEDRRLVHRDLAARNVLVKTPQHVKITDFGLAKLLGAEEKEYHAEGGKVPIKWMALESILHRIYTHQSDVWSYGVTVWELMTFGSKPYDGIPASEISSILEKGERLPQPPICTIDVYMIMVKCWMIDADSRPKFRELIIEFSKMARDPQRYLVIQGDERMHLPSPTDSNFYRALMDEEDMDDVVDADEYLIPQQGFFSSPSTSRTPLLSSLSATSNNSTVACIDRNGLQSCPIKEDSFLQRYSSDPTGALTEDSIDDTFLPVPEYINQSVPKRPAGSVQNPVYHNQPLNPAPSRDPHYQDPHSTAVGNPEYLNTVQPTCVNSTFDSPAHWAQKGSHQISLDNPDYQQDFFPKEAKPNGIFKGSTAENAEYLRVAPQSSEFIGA

SMILES	IC50 (EGFR (WT)) [nM]	Ratio WT/mutant (H1975) [1]	Ratio WT/mutant (HCC827) [2]
C=CC(=O)Nc1cccc(Nc2nc(Nc3ccc(N4CCN(C(=O)CO)CC4)cc3OC(F)F)ncc2C(F)(F)F)c1 [Compound I-31, N-(3-(2-(2-(difluoromethoxy)-4-(4-(2-hydroxyacetyl)piperazin-1-yl)phenylamino)-5-(trifluoromethyl)pyrimidin-4-ylamino)phenyl)acrylamide]	< 1		
C=CC(=O)Nc1cccc(Oc2nc(Nc3ccc(N4CCCN(C(=O)OC(C)(C)C)CC4)cc3OC)ncc2C(F)(F)F)c1 [Compound I-39, tert-butyl 4-(4-(4-(3-acrylamidophenoxy)-5-(trifluoromethyl)pyrimidin-2-ylamino)-3-methoxyphenyl)-1,4-diazepane-1-carboxylate]	> 1000	<1	>1
C=CC(=O)Nc1cccc(Nc2nc(Nc3ccc(N4CCN(C(C)=O)CC4)cc3OC(F)F)ncc2C(F)(F)F)c1 [Compound I-32, N-(3-(2-(4-(4-acetylpiperazin-1-yl)-2-(difluoromethoxy)phenylamino)-5-(trifluoromethyl)pyrimidin-4-ylamino)phenyl)acrylamide]	< 1		
C=CC(=O)Nc1cccc(Oc2nc(Nc3ccc(N4CCN(C(=O)OC(C)(C)C)CC4)cc3OC(F)(F)F)ncc2Cl)c1 [Compound I-47, tert-butyl 4-(4-(4-(3-acrylamidophenoxy)-5-chloropyrimidin-2-ylamino)-3-(trifluoromethoxy)phenyl)piperazine-1-carboxylate]	> 1000		
C=CC(=O)Nc1cccc(Oc2nc(Nc3ccc(N4CCOCC4)cc3OC(F)F)ncc2Cl)c1 [Compound I-36, N-(3-(5-chloro-2-(2-(difluoromethoxy)-4-morpholinophenylamino)pyrimidin-4-yloxy)phenyl)acrylamide]	10 to 30	>25	>50
C=CC(=O)Nc1cccc(Nc2nc(Nc3ccc(N4CCCN(C(=O)C(F)(F)F)CC4)cc3OC)ncc2C(F)(F)F)c1 [Compound I-19, N-(3-(2-(2-methoxy-4-(4-(2,2,2-trifluoroacetyl)-1,4-diazepan-1-yl)phenylamino)-5-(trifluoromethyl)pyrimidin-4-ylamino)phenyl)acrylamide]	100 to 300	>5	>10
C=CC(=O)Nc1cccc(Oc2nc(Nc3ccc(N4CCN(C(=O)OC(C)(C)C)CC4)cc3OCC)ncc2Cl)c1 [Compound I-18, tert-butyl 4-(4-(4-(3-acrylamidophenoxy)-5-chloropyrimidin-2-ylamino)-3-ethoxyphenyl)piperazine-1-carboxylate]	> 1000	>1	>5
C=CC(=O)Nc1cccc(Oc2nc(Nc3ccc(N4CCN(C(=O)OC(C)(C)C)CC4)cc3OC)ncc2C(F)(F)F)c1 [Compound I-42, tert-butyl 4-(4-(4-(3-acrylamidophenoxy)-5-(trifluoromethyl)pyrimidin-2-ylamino)-3-methoxyphenyl)piperazine-1-carboxylate]	300 to 1000		
C=CC(=O)Nc1cccc(Nc2nc(Nc3ccc(N4CCN(C(=O)OC(C)(C)C)[C@H](C(=O)OC)C4)cc3OC)ncc2C(F)(F)F)c1 [Compound I-50, (S)-1-tert-butyl 2-methyl 4-(4-(4-(3-acrylamidophenylamino)-5-(trifluoromethyl)pyrimidin-2-ylamino)-3-methoxyphenyl)piperazine-1,2-dicarboxylate]		>10	>50
C=CC(=O)Nc1cccc(Oc2nc(Nc3ccc(N4CCCN(C(=O)OC(C)(C)C)CC4)cc3OC)ncc2Cl)c1 [Compound I-43, tert-butyl 4-(4-(4-(3-acrylamidophenoxy)-5-chloropyrimidin-2-ylamino)-3-methoxyphenyl)-1,4-diazepane-1-carboxylate]	300 to 1000		
